Measurements published in ChEMBL document CHEMBL1128102, “1,5-Benzodiazepines as CCK-B antagonists. Effect of halogen substitution at the benzo-fused ring on potency and selectivity” (Bioorg Med Chem Lett, 1995).

What was measured:
[1] = molecular target: Cholecystokinin receptor (Homo sapiens) (UniProt P32239+P32238); assay: Selectivity was determined as the ratio for binding affinities of CCK-A receptor to CCK-B receptor; type: protein assay
[2] = molecular target: T1, Cholecystokinin receptor type A (Rattus norvegicus, UniProt P30551); assay: Binding affinity was measured by its ability to displace [3H]CCK-8S from CCK-A receptor in rat pancreas
T1 sequence (P30551 whole entry): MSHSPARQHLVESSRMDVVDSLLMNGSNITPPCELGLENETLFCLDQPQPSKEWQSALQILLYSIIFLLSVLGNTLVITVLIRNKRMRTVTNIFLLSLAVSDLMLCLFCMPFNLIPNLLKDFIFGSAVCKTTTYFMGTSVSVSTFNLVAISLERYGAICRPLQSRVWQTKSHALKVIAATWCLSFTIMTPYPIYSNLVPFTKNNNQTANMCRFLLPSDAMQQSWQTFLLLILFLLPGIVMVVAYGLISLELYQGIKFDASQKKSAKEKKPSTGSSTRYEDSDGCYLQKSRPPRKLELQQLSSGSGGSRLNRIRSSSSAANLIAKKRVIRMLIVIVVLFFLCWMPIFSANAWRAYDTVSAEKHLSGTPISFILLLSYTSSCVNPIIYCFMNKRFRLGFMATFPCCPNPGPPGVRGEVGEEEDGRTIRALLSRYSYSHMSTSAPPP

Chain of Cholecystokinin receptor (Homo sapiens) (P32238 whole entry, looked up): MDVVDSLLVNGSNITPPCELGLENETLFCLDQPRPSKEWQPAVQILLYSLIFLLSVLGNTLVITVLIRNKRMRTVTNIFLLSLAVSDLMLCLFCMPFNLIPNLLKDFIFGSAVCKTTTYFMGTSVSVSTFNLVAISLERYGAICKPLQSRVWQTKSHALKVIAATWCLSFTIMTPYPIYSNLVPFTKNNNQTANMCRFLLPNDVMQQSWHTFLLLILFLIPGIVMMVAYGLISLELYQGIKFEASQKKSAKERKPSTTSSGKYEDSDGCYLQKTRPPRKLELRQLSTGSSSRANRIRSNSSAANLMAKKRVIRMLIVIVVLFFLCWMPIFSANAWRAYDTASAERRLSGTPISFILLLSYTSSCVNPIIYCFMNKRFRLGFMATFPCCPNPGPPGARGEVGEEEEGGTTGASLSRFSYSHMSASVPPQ
Chain of Cholecystokinin receptor (Homo sapiens) (P32239 whole entry, looked up): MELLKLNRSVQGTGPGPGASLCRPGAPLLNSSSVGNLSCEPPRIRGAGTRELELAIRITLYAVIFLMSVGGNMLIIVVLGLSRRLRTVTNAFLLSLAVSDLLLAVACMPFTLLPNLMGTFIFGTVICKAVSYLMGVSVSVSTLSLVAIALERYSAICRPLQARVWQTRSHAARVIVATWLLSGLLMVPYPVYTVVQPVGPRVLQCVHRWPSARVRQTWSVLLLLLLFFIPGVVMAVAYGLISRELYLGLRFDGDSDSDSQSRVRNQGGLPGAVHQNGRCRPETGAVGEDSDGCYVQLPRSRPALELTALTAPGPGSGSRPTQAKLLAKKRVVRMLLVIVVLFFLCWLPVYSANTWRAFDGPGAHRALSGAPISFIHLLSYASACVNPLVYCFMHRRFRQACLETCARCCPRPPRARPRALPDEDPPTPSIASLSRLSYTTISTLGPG

Structure (SMILES) | Ratio [1] | Ki [2] [nM]
CC(C)CCN1C(=O)C(NC(=O)Nc2ccccc2)C(=O)N(c2ccccc2)c2cc(Cl)c(Cl)cc21 (stereo not given) | 162 | 9.77
CC(C)CCN1C(=O)C(NC(=O)Nc2ccccc2)C(=O)N(c2ccccc2)c2cc(Cl)ccc21 (stereo not given) | 195 | 4.9
CC(C)CCN1C(=O)C(NC(=O)Nc2ccccc2)C(=O)N(c2ccccc2)c2ccc(Cl)cc21 (stereo not given) | 23 | 41.7
CC(C)CCN1C(=O)C(NC(=O)Nc2ccccc2)C(=O)N(c2ccccc2)c2cc(F)ccc21 (stereo not given) | 49 | 4.57
CC(C)CCN1C(=O)C(NC(=O)Nc2ccccc2)C(=O)N(c2ccccc2)c2ccc(F)cc21 (stereo not given) | > 110 | 8.91
